Measured values: patent US20220305021A1, “METHODS OF TREATING AND/OR PREVENTING PSORIASIS” (Athenex, Inc., priority 2019, published 2022)

Tests used:
rats = test: Twice daily dermal administration of KX-01 ointment to rats (six days); assay type: in vivo, rat
Description: Subjects in clinical studies of KX-01 ointment where administered KX-01 ointment up to 250 mg (5 mg/cm^2 [administration amount]×25 cm^2 [administration area]×2 [safety factor for larger application area]). This amount of the 0.01% or 0.1% concentration of ointment contains 0.025 mg or 0.25 mg of KX-01. Therefore, the amount of KX-01 delivered to the skin of the average 60 kg subject is 0.025 or 0.25 mg/60 kg/dose, or 0.00042 or 0.0042 mg/kg/dose. […] The safety margin in administered dermal KX-01 dose indicates little risk of adverse systemic effects in humans under the conditions of the clinical studies of KX-01 ointment based on nonclinical studies in animals.

rabbits = test: Twice daily dermal administration of KX-01 ointment to rabbits (seven days, single dose on day eight); assay type: in vivo, rabbit; conditions: up to 2.0667 mg/kg KX-01 in ointment, seven days twice daily dosing with a single dose on day eight
mini-pigs = test: Once daily KX-01 1% ointment on mini-pigs, occluded skin, 28 days; assay type: in vivo, mini-pig
Description: KX-01 1% once daily administration of KX-01 ointment was examined on the mini-pigs on 10% of body surface area with skin being occluded for consecutive 28 days.

subjects with psoriasis = test: Phase I clinical trial of topical KX-01 ointment in subjects with psoriasis; assay type: in vivo, human
Description: Six subjects with psoriasis with Total Area Score (TAS) of 4-8 (based on the sum of the scores of erythema, elevation and scaling) were assessed. […] In stage I, each subject will be assigned randomly to KX-01 (0.01%, n=6) or placebo (n=2) before the first administration of investigational medicinal product (KX-01 or placebo). 22 subjects are recruited in three stages. Each subject in stage I will receive treatment for two weeks, followed by one-week wash-out, another two-week treatment, and then two-week follow-up. After a satisfactory collaborative review for the safety data of the lower strength (0.01%) at the end of follow up for each subject, if there is no major safety concern (major safety concern is defined as ≥2 subjects in the KX-01 group having ≥CTCAE Grade 3 or severe adverse drug reaction), as well as an unanimous consent by the sponsor and the principle investigator(s), stage II study begins where each subject is assigned randomly to KX-01 (0.1%, n=6) or placebo (n=2) before the first administration. Each subject in the stage II will receive treatment for four weeks, followed by a two-week follow-up. After a satisfactory collaborative review for the safety data of the lower strength (0.1%) at the end of follow up for each subject, if there is no major safety concern, stage III study follows. Stage III comprises a single arm study (n=6), where each subject will receive 1% KX-01 once daily for consecutive five days and then receive post-treatment follow-up on day 6, 15, and 29. • Stage I: 6 subjects (KX-01 0.01% [0.1 mg/g])+2 subjects (placebo) • Stage II: 6 subjects (KX-01 0.1% [1.0 mg/g])+2 subjects (placebo) • Stage III: 6 subjects (KX-01 1% [10 mg/g]) Subjects visit the study center for ambulatory visits: • Stage I (See Tables 1A and 1B) • Visit 1: Screening, within 28 days before first application of IMP • Visit 2: Week 1 (Day 1/Baseline) • Visit 3: Week 2 (Day 8±3/After consecutive 1-week treatment) • Visit 4: Week 3 (Day 15±3/After consecutive 2-week treatment) • Visit 5: Week 4 (Day 22±3/After 1 week wash-out) • Visit 6: Week 6 (Day 36±3/After another consecutive 2-week treatment) • Visit 7: Week 8 (Day 50±3/After 2-week post-treatment follow-up) • Stage II (See Tables 2A and 2B) • Visit 1: Screening, within 28 days before first application of IMP • Visit 2: Week 1 (Day 1/Baseline) • Telephone interview (Day 8±3, after consecutive 1-week treatment) • Visit 3: Week 3 (Day 15±3/After consecutive 2-week treatment) • Visit 4: Week 5 (Day 29±3/After consecutive 4-week treatment) • Visit 5: Week 7 (Day 43±3/After 2-week post-treatment follow-up) • […] (See Table 3) • Visit 1: Screening, within 28 days before first application of IMP • Visit 2: Day 1, baseline • Visit 3: Day 6±1, after consecutive 5-day treatment • Visit 4: Day 15±2, after 10-day post-treatment follow up • Visit 5: Day 29±2, after 24-day post-treatment follow-up The IMP (treatment or placebo) is applied to a single lesion. […] For stage I, each subject receives IMP for 14 consecutive days, followed by 1-week wash-out period and then receives IMP for another 14 consecutive days. For stage II, each subject receives IMP for 28 consecutive days. For stage III, each subject receives IMP once daily for consecutive five days. For stage I and II, blood samples for the determination of KX-01 concentrations are collected prior to the morning dose at the designated ambulatory visits to the study center (Stage I: Day 1, 8±3, 15±3, 22±3 Stage II: Day 1, 15±3, 29±3) (See Table 4). For stage III, blood samples for drug concentrations are collected prior to the dose on day 1, and day 6±1, day 15±2. The duration of this study is approximately three months for each subjects (See Table 4). On day 1, a single treatment lesion consisting of active psoriasis skin lesion of at least 16 cm^2 in size with upper limit of 625 cm^2 for stage I and II, and at least 16 cm^2 and no more than 100 cm^2 (≥16 cm^2 &≤100 cm^2) in size for stage III is selected for each subject. […]

[1] = 1% ointment once daily, 10% of body surface area, occluded, 28 consecutive days
[2] = 1% ointment daily for five days, observed in one subject
[3] = KX-01 ointment 0.01% twice daily dose regimen

O=C(Cc1ccc(-c2ccc(OCCN3CCOCC3)cc2)cn1)NCc1ccccc1 [KX-01, Tirbanibulin]
Safety margin: clinical dermal dose times lower than rat 12.4 mg/kg/dose (rats; 0.01% ointment, 0.025 mg/60 kg/dose (0.00042 mg/kg/dose) in humans vs 12.4 mg/kg/dose in rats): approximately 29700 times | Safety margin: clinical dermal dose times lower than rat 12.4 mg/kg/dose (rats; 0.1% ointment, 0.25 mg/60 kg/dose (0.0042 mg/kg/dose) in humans vs 12.4 mg/kg/dose in rats): ~2970 times | Plasma concentrations of KX-01 (rats; rat, in vivo): very low | Skin irritation (rabbits): mild to moderate | Systemic adverse effects (rabbits): no signs of systemic adverse effects | Body weight (mini-pigs; [1]): decreased | Edema at the drug application site (mini-pigs; [1]): very slight to slight | Erythema and eschar at the drug application site (mini-pigs; [1]): very slight to severe | Hepatic, renal, and haematological profiles (mini-pigs; [1]): changes | Other skin findings at the drug application site (mini-pigs; [1]): desquamation, fissuring, scab, ulceration | Reversibility of findings (mini-pigs; by the last week of recovery after 28 days of 1% ointment): Most of these findings were resolved | Systemic absorption of KX-01 (subjects with psoriasis; 1% ointment daily for five days, topical): no significant absorption | Psoriatic plaque thickness (subjects with psoriasis; 1% ointment daily for five days, another subject of six): improvement | Skin burning sensation (adverse event severity) (subjects with psoriasis; [2]): mild (grade-1) | Skin irritation (adverse event severity) (subjects with psoriasis; [2]): mild (grade-1) | Skin scaling (subjects with psoriasis; 1% ointment daily for five days, one subject of six): complete resolution | Tolerability of treatment (subjects with psoriasis; 1% ointment daily for five days, six subjects): well-tolerated | TAS score (sum of erythema, elevation and scaling) (subjects with psoriasis; 1% ointment daily for five days, six subjects, baseline TAS 4-8): All subjects showed an improvement | Clinical activity (subjects with psoriasis; KX-01 (Tirbanibulin) 1% ointment daily for five days, first cohort of subjects with psoriasis): Clinical activity signals were observed | Serious adverse events (SAE) (subjects with psoriasis; [3]): No serious adverse event | Treatment-emergent adverse events related to drug (subjects with psoriasis; [3]): Only one treatment-emergent adverse event, Grade 1 tenderness | Tolerability (subjects with psoriasis; KX-01 ointment 0.01% twice daily dose regimen, most subjects): excellent and good | Safety profile (subjects with psoriasis; KX-01 ointment in the treatment of psoriasis): Good safety profile
